Results taken from patent publication US5308843A, “Method of inhibiting mammalian topoisomerase II and malignant cell growth in mammals, with substituted (S)-3-methyl-7-oxo-2,3-dihydro-7H-pyrido[1,2,3-de][1,4 ]-benzoxazine(and-benzothiazine)-6-carboxylic acids” (Sterling Drug Inc., priority 1990, dated 1994).
Each block holds one molecule with its values, some of them ahead of it.

Tests used:
human topoisomerase II = target: T1, human topoisomerase II (Homo sapiens, UniProt P11388); assay: Mammalian (human) topoisomerase II inhibition assay: topo II-DNA complex stabilisation; type: biochemical; settings: concentration with activity equal to the EC50 of reference mAMSA; 20 min at 37° C.
T1 construct: Topo II was purified from late log phase suspension cultures of HeLa WIS; endogenous in cells; host or cells: HeLa WIS (late log phase suspension cultures); native enzyme purified in house
From the text: Mammalian Topoisomerase II Inhibition Assay Procedure
The inhibition of human topoisomerase II (hereafter topo II) was quantitated by a procedure adapted from that described by Trask et al., EMBO J., 3, 671-676 (1984). The assay quantitates the amount of topo II covalently complexed by DNA at equilibrium during a topo II reaction. This assay determines the potential of a compound to stabilize this complex, which potential is closely related to the cytotoxicity of the compound.
Topo II was purified from late log phase suspension cultures of HeLa WIS by an adaption of the method described by Per et al., Mol. Pharmacol., 32, 17-25 (1987).
Assays (in duplicate) were assembled at 4° C. Assay mix (25 μl) was distributed in Beckman (No. 265270) 1.5 ml microtitre tubes followed by the addition of 5 μl test compound to yield the final concentrations of assay components:
4 ng 3' end labeled (32p) pBR322 DNA (10^7 DPM/μg)
The assay mix including the test compound was incubated for 20 minutes at 37° C. The reaction was terminated at 37° C. by the addition of 3 μl 10% SDS followed by the addition of 266 μl 10 mM Tris-Cl pH 7.5, 20 μg/ml BSA, 20 μg/ml calf thymus DNA, 1% SDS.
A SDS/protein precipitate was formed by the addition of 28 μl 2.5M KCl followed by chilling on ice for a minimum of 10 minutes. The precipitate was collected and washed with a Brandell cell harvester on a GFB glass fiber filter membrane as follows. The contents of the assay tube were drawn up into the harvester. The tube was then rinsed 7× with 10 mM Tris-Cl pH 7.5, 1 mM EDTA and 100 mM KCl. The precipitate was washed with 1 L of a solution of 10 mM Tris-Cl pH 7.5, 1 mM EDTA, 100 mM KCl followed by 1 L of 95% ethyl alcohol and finally 0.5 L 70% of ethyl alcohol (per 48 samples in each case). After drying, CPM was determined by liquid scintillation counting with 5 ml Biofluor (NEN Research Products) or Readisafe (Beckman Instruments Inc.) cocktail.
Preparation of test compound--A stock solution (6 mg/ml) of test compound was prepared either in 0.1N sodium hydroxide or 0.2N hydrogen chloride. This solution then was diluted 1/5 into water and serially thereafter in either 0.02N sodium hydroxide or 0.04N hydrogen chloride, respectively. The stock solution and serial dilution of the test compound was stored at -20° C. prior to testing.
Screening of test compound--As an initial screen, the test compound was tested at a final concentration of 2, 20 and 200 μg/ml.
Controls--A solvent control which indicates the base level of topo II-DNA complex formed in the absence of the test compound was included in each test. A control, in which topo II was omitted, was included for each test compound at the highest drug concentration tested.
Reference agent--A dose response curve with mAMSA at 0.01, 0.08, 0.16, 0.32, 1.0 and 10 μg/ml was included in each test.
Data reduction--The EC50 (effective concentration at which 50% of the maximal DNA-topo II complex is formed) of a test compound is defined to be the concentration with activity equal to the EC50 of the reference agent, mAMSA. The maximal DNA-topo II complex formed is taken as that equal to that formed at the nearly saturating dose of mAMSA (10 μg/ml).

[1] = system: purified eukaryotic topoisomerase II; settings: Barrett et al. 1987; cited from earlier work
[2] = system: procaryotic and eucaryotic topoisomerase enzymes; settings: Jefson et al. 1989; cited from earlier work
[3] = system: DNA topoisomerase II from calf thymus; settings: Hussy et al. 1986; cited from earlier work
[4] = system: topoisomerase II of fetal calf thymus; settings: among compared quinolones, Hoshino et al. 1989; cited from earlier work

T1 sequence (P11388 whole entry): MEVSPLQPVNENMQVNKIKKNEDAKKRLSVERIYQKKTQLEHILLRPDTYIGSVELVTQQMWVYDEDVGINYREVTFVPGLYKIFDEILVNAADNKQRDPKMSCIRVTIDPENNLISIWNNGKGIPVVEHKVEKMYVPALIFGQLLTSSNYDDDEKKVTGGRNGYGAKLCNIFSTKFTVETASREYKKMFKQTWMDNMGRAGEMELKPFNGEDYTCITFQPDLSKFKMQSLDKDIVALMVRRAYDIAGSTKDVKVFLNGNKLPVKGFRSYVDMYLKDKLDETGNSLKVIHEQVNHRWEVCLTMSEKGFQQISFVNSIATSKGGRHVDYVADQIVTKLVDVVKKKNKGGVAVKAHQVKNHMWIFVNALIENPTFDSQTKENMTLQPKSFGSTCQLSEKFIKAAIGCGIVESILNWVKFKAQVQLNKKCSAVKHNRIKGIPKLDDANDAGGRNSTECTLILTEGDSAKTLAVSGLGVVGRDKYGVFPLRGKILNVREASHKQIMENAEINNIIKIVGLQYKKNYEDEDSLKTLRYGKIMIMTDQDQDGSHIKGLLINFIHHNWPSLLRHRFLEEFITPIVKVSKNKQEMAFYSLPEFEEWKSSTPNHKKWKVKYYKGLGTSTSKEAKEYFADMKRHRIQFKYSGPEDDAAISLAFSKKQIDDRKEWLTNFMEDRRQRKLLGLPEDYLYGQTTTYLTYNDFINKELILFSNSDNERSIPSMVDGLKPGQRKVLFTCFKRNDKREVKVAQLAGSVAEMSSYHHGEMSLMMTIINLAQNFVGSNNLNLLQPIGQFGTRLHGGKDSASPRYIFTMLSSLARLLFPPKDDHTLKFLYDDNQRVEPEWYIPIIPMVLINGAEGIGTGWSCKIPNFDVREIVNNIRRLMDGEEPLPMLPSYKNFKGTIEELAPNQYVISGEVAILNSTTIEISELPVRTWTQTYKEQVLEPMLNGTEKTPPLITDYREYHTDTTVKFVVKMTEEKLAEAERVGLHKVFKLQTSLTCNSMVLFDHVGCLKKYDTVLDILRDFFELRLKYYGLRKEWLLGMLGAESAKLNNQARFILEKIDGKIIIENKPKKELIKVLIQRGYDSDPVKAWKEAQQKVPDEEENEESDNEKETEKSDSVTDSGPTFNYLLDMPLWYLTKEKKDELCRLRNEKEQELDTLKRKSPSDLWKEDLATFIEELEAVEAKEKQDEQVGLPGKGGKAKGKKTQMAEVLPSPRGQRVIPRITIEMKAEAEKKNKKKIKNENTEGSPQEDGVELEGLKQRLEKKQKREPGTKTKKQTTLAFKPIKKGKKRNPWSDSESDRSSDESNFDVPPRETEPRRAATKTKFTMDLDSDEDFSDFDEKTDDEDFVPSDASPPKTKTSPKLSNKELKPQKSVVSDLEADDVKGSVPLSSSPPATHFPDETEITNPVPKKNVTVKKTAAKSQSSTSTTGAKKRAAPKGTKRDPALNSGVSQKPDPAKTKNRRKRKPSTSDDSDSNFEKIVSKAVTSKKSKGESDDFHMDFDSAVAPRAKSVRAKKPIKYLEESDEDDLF

- EC50 (human topoisomerase II): 57 µM
Structure (SMILES): C[C@H]1COc2c(-c3ccncc3)c(F)cc3c(=O)c(C(=O)O)cn1c23 [1(b), (S)-10-(4-Pyridinyl)-9-fluoro-2,3-dihydro-3-methyl-7-oxo-7H-pyrido[1,2,3-de][1,4]benzoxazine-6-carboxylic acid]

- EC50 (human topoisomerase II): 92 µM
Structure (SMILES): CCc1cc(-c2c(F)cc3c(=O)c(C(=O)O)cn4c3c2OC[C@@H]4C)ccn1 [3(c), (S)-10-(2-Ethyl-4-pyridinyl)-9-fluoro-2,3-dihydro-3-methyl-7-oxo-7H-pyrido[1,2,3-de][1,4]benzoxazine-6-carboxylic acid]

Structure (SMILES): CCn1cc(C(=O)O)c(=O)c2cc(F)c(-c3ccncc3)c(F)c21 [CP-67,015, 6,8-difluoro-1-ethyl-7-(4-pyridyl)-1,4-dihydro-4-oxo-3-quinolinecarboxylic acid]
- enhancement/induction of DNA cleavage mediated by topoisomerase II (in words) [1]: induced significant DNA cleavage in both the radiolabeled and cold cleavage assays

- EC50 (human topoisomerase II): 68 µM
Structure (SMILES): CCc1cc(-c2c(F)cc3c(=O)c(C(=O)O)cn4c3c2OC[C@@H]4C)cc(C)n1 [Example 2(d), (S)-10-(2-Ethyl-6-methyl-4-pyridinyl)-9-fluoro-2,3-dihydro-3-methyl-7-oxo-7H-pyrido[1,2,3-de][1,4]benzoxazine-6-carboxylic acid]

- EC50 (human topoisomerase II): 62 µM
Structure (SMILES): Cc1cc(-c2c(F)cc3c(=O)c(C(=O)O)cn4c3c2[S@@+]([O-])CC4C)cc(C)n1 (stereo partly drawn) [Example 4, (S)-10-(2,6-Dimethyl-4-pyridinyl)-9-fluoro-3-methyl-7-oxo-2,3-dihydro-7H-pyrido[1,2,3-de][1,4]benzothiazine-6-carboxylic acid 1-oxide]

- EC50 (human topoisomerase II): 50 µM
Structure (SMILES): Cc1cc(-c2c(F)c(F)c3c(=O)c(C(=O)O)cn4c3c2OC[C@@H]4C)cc(C)n1 [Example 6, (S)-10-(2,6-Dimethyl-4-pyridinyl)-8,9-difluoro-3-methyl-7-oxo-2,3-dihydro-7H-pyrido[1,2,3-de][1,4]benzoxazine-6-carboxylic acid]

- EC50 (human topoisomerase II): 31 µM
Structure (SMILES): Cc1cc(-c2c(F)cc3c(=O)c(C(=O)O)cn4c3c2OC[C@@H]4C)cc(C)n1 [Example 7, (S)-10-(2,6-Dimethyl-4-pyridinyl)-9-fluoro-3-methyl-7-oxo-2,3-dihydro-7H-pyrido[1,2,3-de][1,4]benzoxazine-6-carboxylic acid]

Structure (SMILES): C[C@H]1COc2c(-c3ccncc3)c(F)cc3c(=O)c(C(=O)O)cn1c23 [S-(-)-CP-92,121, (S)-9-fluoro-3-methyl-10-(4-pyridyl)-7-oxo-7H-pyrido[1,2,3-de][1,4]benzoxazine-6-carboxylic acid]
- combined activity against procaryotic and eucaryotic topoisomerase enzymes (in words) [2]: combined potent activity

Structure (SMILES): C[C@H]1COc2c(-c3ccc4ncccc4c3)c(F)cc3c(=O)c(C(=O)O)cn1c23 [S-(-)-CP-100,964, (S)-9-fluoro-3-methyl-10-(6-quinolyl)-7-oxo-7H-pyrido[1,2,3-de][1,4]benzoxazine-6-carboxylic acid]
- combined activity against procaryotic and eucaryotic topoisomerase enzymes (in words) [2]: combined potent activity

Structure (SMILES): O=C(O)c1cn(C2CC2)c2cc(N3CCNCC3)c(F)cc2c1=O [ciprofloxacin, 1-cycloproyl-6-fluoro-7-(1-piperazinyl)-1,4-dihydro-4-oxo-3-quinolinecarboxylic acid]
- Ki values of 50% inhibition [3]: 150 µg/mL

Structure (SMILES): CCn1cc(C(=O)O)c(=O)c2cc(F)c(N3CCNCC3)cc21 [norfloxacin, 1-ethyl-6-fluoro-7-(1-piperazinyl)-1,4-dihydro-4-oxo-3-quinolinecarboxylic acid]
- Ki values of 50% inhibition [3]: 300 µg/mL
- enhancement/induction of DNA cleavage mediated by topoisomerase II (in words) [1]: not to be potent enhancers of DNA cleavage mediated by topoisomerase II

Structure (SMILES): CC1COc2c(N3CCN(C)CC3)c(F)cc3c(=O)c(C(=O)O)cn1c23 (centres unmarked) [ofloxacin, 9-fluoro-3-methyl-10-(4-methyl-1-piperazinyl)-7-oxo-2,3-dihydro-7H-pyrido[1,2,3-de][1,4]benzoxazine-6-carboxylic acid]
- potency of inhibition of topoisomerase II (in words) [4]: lowest
- Ki values of 50% inhibition [3]: 1300 µg/mL
